One block for each compound: values may come before it.
How the values were obtained:
Type in all cases: physicochemical
[1] = Particle size distribution (D10, D50, D90); details: for Particle Size distribution (μm) D50: Table 6, Example 5; for Particle Size distribution (μm) D10 / Particle Size distribution (μm) D90: Table 6
Source text: As used herein, the “D90” of a particulate material denotes a diameter value for the particles in the material at which about 90% of the particles have a diameter below the diameter value. For example, in a sample with a D90 of 20 μm, 90% of the particles in the sample have a diameter of 20 μm or less. As used herein, the “D50” of a material denotes a diameter value for the particles in the material at which about 50% of the particles have a diameter below the diameter value. For example, in a sample with a D50 of 10 μm, 50% of the particles in the sample have a diameter of 10 μm or less. As used herein, the “D10” of a material denotes a diameter value for the particles in the material at which about 10% of the particles have a diameter below the diameter value. For example, in a sample with a D10 of 5 μm, 10% of the particles in the sample have a diameter of 5 μm or less.

[2] = Dissolution time in water by Modified United States Pharmacopeia Method 641
Method: As used herein, the term “Modified United States Pharmacopeia Method 641” denotes a modified form of the Standard United States Pharmacopeia Method 641, where the Modified United States Pharmacopeia Method 641 is carried out as follows: • Place 1.8 g of the particulate iohexol in a meticulously clean, glass-stoppered, 50 mL glass cylinder approximately 1:10 diameter to height in size. • Fill 40 mL of tap water adjusted to 10° C. (±2° C.) into the glass cylinder. • Immediately start shaking the glass cylinder and start recording total time. • Shake the glass cylinder with an up and down movement, keeping the frequency at 12-13 movements per 5 seconds. • After 20 seconds observe for 3 seconds for completeness of dissolution. • Evaluate after 3 seconds, when the bubbles disappear, comparing with pure solvent. • If dissolved completely, record “dissolved in 20 seconds”. • If not dissolved completely, continue shaking for a total time 30 sec • Repeat the dissolution evaluation at 30 seconds, 40 seconds, 1 min., and 1 min. 30 seconds. • Always repeat the dissolution evaluation using the same procedure. • If dissolved completely at time point 1 min 30 sec, record “dissolved in NMT 1 min 30 sec”. • If not dissolved, record “not dissolved in 1 min 30 sec”. 20 oz (600 ml) modified beverage PET bottle for Iohexol Powder for Oral Solution product; 50 ml testing glass cylinder; Tap water. Samples were tested using the Modified USP Method <641> as described herein.

[3] = Interparticle spacing calculated from bulk and skeletal density
Method: As used herein, the term “interparticle spacing” denotes the percentage of the “bulk” particle volume which is free space. The interparticle spacing can be calculated from the bulk density and skeletal density. As discussed above, bulk density refers to the density determined by dividing the weight of the sample by its measured volume, for example using the USP <616> method. The skeletal density, sometimes referred to as the “true density,” is determined by dividing the weight of a sample by its “true” volume—i.e., the volume excluding interstitial voids and any open porosity in the sample (e.g., determined by gas displacement techniques).

[4] = Specific surface area by low-temperature nitrogen adsorption (BET); details: for Specific surface area m^2/g: Table 6, Example 5; for Specific Area measured [m^2/g]: BET isotherm, nitrogen adsorption
Method: Specific surface area was measured using a low-temperature nitrogen adsorption apparatus, a Pulse Chemisorb 2700.
The specific surface area data, which were evaluated using a BET isotherm, support the nonporous nature/character of the particles. The measured value of the specific surface area was about 2.8 m^2/g, which is consistent with the calculation of the specific surface area of hypothetical material which consists of non-porous spheres with a radius of 3 μm. Considering the skeletal density of crystallized iohexol (2.097 g/cm3), the calculated specific surface area of this hypothetical material is about 4 m^2/g. All data provided by analyses appear to support the conclusion that the crystallized iohexol solid material contains agglomerates consisting of small nonporous particles and that the total specific area is the sum of the outer surface areas of these particles.
Experimentally obtained values of the specific surface area are very low, which is typical of macroporous to non-porous materials. Experimental specific surface area values for all samples are in good agreement with the estimated values based on SEM image analysis, (calculating the particle surface area based on the geometrical shape of particles, i.e., and assuming that the particles are not porous (confirmed by mercury porosimetry as discussed above). Individual values and comparisons of the amount of nitrogen desorption for each sample are summarized in Table 5.

[5] = Bulk density; details: Table 6
Source text: As used herein, the term “bulk density” of a material denotes total mass of the material divided by the total volume occupied by the material. As used herein, the term “interparticle spacing” denotes the percentage of the “bulk” particle volume which is free space. The interparticle spacing can be calculated from the bulk density and skeletal density. As discussed above, bulk density refers to the density determined by dividing the weight of the sample by its measured volume, for example using the USP <616> method. The skeletal density, sometimes referred to as the “true density,” is determined by dividing the weight of a sample by its “true” volume—i.e., the volume excluding interstitial voids and any open porosity in the sample (e.g., determined by gas displacement techniques). Interparticle spacing can be calculated from the bulk density and skeletal density as exemplified herein: if the bulk density of a particular iohexol sample is ˜0.9 g/cm^3, the corresponding “bulk” volume for 1 g of the sample is 1.11 cm^3; and if the skeletal density of the sample is ˜2 g/cm^3, the corresponding “skeletal” volume (i.e. volume with porosity excluded) for 1 g of this sample is 0.5 cm^3. The difference between the “bulk” volume and “skeletal” volume, 0.61 cm^3, represents the volume of the free space (porosity) in the particle. The interparticle spacing is the difference between the “skeletal” volume and bulk volume, divided by the “bulk” volume, expressed as a percentage (i.e. 0.61 cm^3/1.11 cm^3=55% in this example).

[6] = Skeletal density by helium pycnometer; details: for Skeletal density (g/cm3): Table 6; for Skeletal density: Table 5, Example 3
Method: As used herein, the term “interparticle spacing” denotes the percentage of the “bulk” particle volume which is free space. The interparticle spacing can be calculated from the bulk density and skeletal density. As discussed above, bulk density refers to the density determined by dividing the weight of the sample by its measured volume, for example using the USP <616> method. The skeletal density, sometimes referred to as the “true density,” is determined by dividing the weight of a sample by its “true” volume—i.e., the volume excluding interstitial voids and any open porosity in the sample (e.g., determined by gas displacement techniques). […] The porosity of the iohexol particles was also investigated using mercury intrusion, and the skeletal density was determined by helium pycnometer and physical adsorption of nitrogen.

Specific Area measured [m^2/g] ([4]; Table 5): <1 m^2/g
Specific Area measured [m^2/g] ([4]; Table 5, listed as spray dried iohexol): less than 1 m^2/g
Specific Area estimated [m^2/g] ([4]; Table 5, calculated from SEM geometry assuming non-porous spheres): 0.5^b m^2/g
Relative desorbed amount Ad/Ad(crystallized) ([4]; Table 5, nitrogen desorbed relative to crystallized iohexol): 0.08
Specific surface area m^2/g ([4]; listed as spray dried iohexol): about 0.5 m^2/g
Skeletal density [6]: 2.029 g/mL
Skeletal density ([6]; listed as spray dried iohexol): 2.029 g/mL
SMILES: CC(=O)N(CC(O)CO)c1c(I)c(C(=O)NCC(O)CO)c(I)c(C(=O)NCC(O)CO)c1I (stereo not shown) [SDI, iohexol]

Particle Size distribution (μm) D10 [1]: 7 μm
Particle Size distribution (μm) D90 [1]: 61 μm
Particle Size distribution (μm) D50 [1]: 27 μm
Dissolution time ([2]; Table 6, Example 5): 90 s
Interparticle space (% of bulk volume) ([3]; Table 6): 56 % of bulk volume
Specific surface area m^2/g [4]: 0.50 m^2/g
Bulk density (g/cm3) [5]: 0.90 g/cm3
Skeletal density (g/cm3) [6]: 2.0 g/cm3
SMILES: CC(=O)N(CC(O)CO)c1c(I)c(C(=O)NCC(O)CO)c(I)c(C(=O)NCC(O)CO)c1I (stereo not shown) [Conventional Sample #1, iohexol]

Particle Size distribution (μm) D50 ([1]; listed as 01206013): 10 μm
Particle Size distribution (μm) D10 ([1]; listed as 01206013): 5 μm
Particle Size distribution (μm) D90 ([1]; listed as 01206013): 15 μm
Dissolution time ([2]; Table 4, 1.8 g in 40 mL tap water at 10° C., manual shaking, listed as 01206013): 40 s
Dissolution time ([2]; Table 6, Example 5, listed as 01206013): 40 s
Interparticle space (% of bulk volume) ([3]; Table 6, listed as 01206013): 73 % of bulk volume
Specific surface area m^2/g ([4]; listed as 01206013): 4.00 m^2/g
Bulk density (g/cm3) ([5]; listed as 01206013): 0.56 g/cm3
SMILES: CC(=O)N(CC(O)CO)c1c(I)c(C(=O)NCC(O)CO)c(I)c(C(=O)NCC(O)CO)c1I (stereo not shown) [Batch 01206013, iohexol]

The next lines start with the compound.

SMILES: CC(=O)N(CC(O)CO)c1c(I)c(C(=O)NCC(O)CO)c(I)c(C(=O)NCC(O)CO)c1I (stereo not shown) [Batch 03202012/1, iohexol]
Particle Size distribution (μm) D50 ([1]; listed as 03202012/1): 14 μm
Particle Size distribution (μm) D10 ([1]; listed as 03202012/1): 9 μm
Particle Size distribution (μm) D90 ([1]; listed as 03202012/1): 22 μm
Dissolution time ([2]; Table 4, 1.8 g in 40 mL tap water at 10° C., manual shaking, listed as 03202012/1): 60 s
Dissolution time ([2]; Table 6, Example 5, listed as 03202012/1): 60 s
Interparticle space (% of bulk volume) ([3]; Table 6, listed as 03202012/1): 56 % of bulk volume
Specific surface area m^2/g ([4]; listed as 03202012/1): 0.50 m^2/g
Bulk density (g/cm3) ([5]; listed as 03202012/1): 0.90 g/cm3
Skeletal density (g/cm3) [6]: 2.0 g/cm3

SMILES: CC(=O)N(CC(O)CO)c1c(I)c(C(=O)NCC(O)CO)c(I)c(C(=O)NCC(O)CO)c1I (stereo not shown) [Batch 03302012, iohexol]
Particle Size distribution (μm) D50 ([1]; listed as 03302012): 10 μm
Particle Size distribution (μm) D10 ([1]; listed as 03302012): 5 μm
Particle Size distribution (μm) D90 ([1]; listed as 03302012): 16 μm
Dissolution time ([2]; Table 4, 1.8 g in 40 mL tap water at 10° C., manual shaking, listed as 03302012): 40 s
Dissolution time ([2]; Table 6, Example 5, listed as 03302012): 40 s
Interparticle space (% of bulk volume) ([3]; Table 6, listed as 03302012): 73 % of bulk volume
Specific surface area m^2/g ([4]; listed as 03302012): 4.00 m^2/g
Bulk density (g/cm3) ([5]; listed as 03302012): 0.56 g/cm3
